The CheMixHub viscosity set
Where “and” joins values, the source holds several entries; their conditions need not be identical. Identical values can stand only once.

Assay: xn = mol fraction of the nth substance listed

S=C=S + ClC(Cl)(Cl)Cl
101 kPa
Details | viscosity [mPa·s]
293.15 K, x1 = 0.223 | 0.74
293.15 K, x1 = 0.526 | 0.52
293.15 K, x1 = 0.628 | 0.47
293.15 K, x1 = 0.718 | 0.43
293.15 K, x1 = 0.794 | 0.41
293.15 K, x1 = 0.85 | 0.39
293.15 K, x1 = 0.914 | 0.38
298.15 K, x1 = 0.1 | 0.7919
298.15 K, x1 = 0.2 | 0.7079
298.15 K, x1 = 0.3 | 0.6441
298.15 K, x1 = 0.4 | 0.591
298.15 K, x1 = 0.5 | 0.5423
298.15 K, x1 = 0.6 | 0.4948
298.15 K, x1 = 0.7 | 0.4484
298.15 K, x1 = 0.8 | 0.4061
298.15 K, x1 = 0.9 | 0.3741

O=CN1CCOCC1 + Clc1ccccc1
viscosity [mPa·s], 101 kPa
Details | x1 = 0.1017 | x1 = 0.203 | x1 = 0.3039 | x1 = 0.4045 | x1 = 0.5046 | x1 = 0.6044 | x1 = 0.7039 | x1 = 0.8029 | x1 = 0.9017
303.15 K | 0.844 | 1.034 | 1.274 | 1.58 | 1.966 | 2.471 | 3.125 | 3.981 | 5.096
308.15 K | 0.801 | 0.973 | 1.186 | 1.455 | 1.793 | 2.233 | 2.8 | 3.529 | 4.465
313.15 K | 0.753 | 0.911 | 1.105 | 1.351 | 1.656 | 2.05 | 2.56 | 3.21 | 4.04

FC(F)C(F)(F)F + FCF
viscosity [mPa·s], 101 kPa
Details | x1 = 0.247 | x1 = 0.49 | x1 = 0.744
298.15 K | 0.1177 | 0.12 | 0.1269
313.15 K | – | – | 0.1021

C=CCN=C=S + NCCN
313.15 K, 100 kPa
Details | viscosity [mPa·s]
x1 = 0.15 | 2.956
x1 = 0.2794 | 6.678
x1 = 0.4515 | 71.46
x1 = 0.4948 | 155.4
x1 = 0.5496 | 648.5
x1 = 0.5994 | 2470
x1 = 0.667 | 61100
x1 = 0.7502 | 281.4
x1 = 0.851 | 55.46

O=C[C@H](O)[C@@H](O)[C@H](O)[C@H](O)CO + O
Details | viscosity
293.15 K, 101 kPa, x1 = 0.002 | 1.043 mPa·s
293.15 K, 101 kPa, x1 = 0.0026 | 1.079 mPa·s
293.15 K, 101 kPa, x1 = 0.005 | 1.13 mPa·s
293.15 K, 101 kPa, x1 = 0.011 | 1.24 mPa·s and 1.34 mPa·s
293.15 K, 101 kPa, x1 = 0.0244 | 1.95 mPa·s
293.15 K, 101 kPa, x1 = 0.0411 | 3.01 mPa·s
293.15 K, 101 kPa, x1 = 0.0625 | 5.4 mPa·s
293.15 K, 101.3 kPa, x1 = 0.001 | 1.021 mPa·s
298.15 K, 100 kPa, x1 = 0.0009 | 1.019 mPa·s
298.15 K, 101 kPa, x1 = 0.0002 | 0.9013 mPa·s
298.15 K, 101 kPa, x1 = 0.0005 | 0.9169 mPa·s
298.15 K, 101 kPa, x1 = 0.001 | 0.9634 mPa·s
298.15 K, 101 kPa, x1 = 0.0018 | 0.9874 mPa·s
298.15 K, 101 kPa, x1 = 0.002 | 0.9826 mPa·s
298.15 K, 101 kPa, x1 = 0.00413 | 0.9934 mPa·s
298.15 K, 101 kPa, x1 = 0.005 | 1.015 mPa·s
298.15 K, 101 kPa, x1 = 0.00623 | 1.03 mPa·s
298.15 K, 101 kPa, x1 = 0.011 | 1.15 mPa·s
298.15 K, 101 kPa, x1 = 0.02 | 1.42 mPa·s
298.15 K, 101 kPa, x1 = 0.0244 | 1.68 mPa·s
298.15 K, 101 kPa, x1 = 0.0411 | 2.48 mPa·s
298.15 K, 101 kPa, x1 = 0.0625 | 4.48 mPa·s
298.15 K, 101 kPa, x1 = 0.0909 | 8.75 mPa·s and 12.75 mPa·s
303.15 K, 100 kPa, x1 = 0.0009 | 0.9332 mPa·s
303.15 K, 101 kPa, x1 = 0.002 | 0.8392 mPa·s
303.15 K, 101 kPa, x1 = 0.004 | 0.8723 mPa·s
303.15 K, 101 kPa, x1 = 0.005 | 0.9084 mPa·s
303.15 K, 101.3 kPa, x1 = 0.001 | 0.814 mPa·s
308.15 K, 100 kPa, x1 = 0.0009 | 0.8522 mPa·s
308.15 K, 101 kPa, x1 = 0.00209 | 0.7871 mPa·s
308.15 K, 101 kPa, x1 = 0.004 | 0.7909 mPa·s
308.15 K, 101 kPa, x1 = 0.00413 | 0.8216 mPa·s
308.15 K, 101 kPa, x1 = 0.005 | 0.8313 mPa·s
308.15 K, 101 kPa, x1 = 0.008982 | 0.911 mPa·s
308.15 K, 101 kPa, x1 = 0.011 | 0.98 mPa·s and 1.05 mPa·s
308.15 K, 101 kPa, x1 = 0.01441 | 1.037 mPa·s
308.15 K, 101 kPa, x1 = 0.0179 | 1.134 mPa·s
308.15 K, 101 kPa, x1 = 0.02 | 1.133 mPa·s and 1.086 mPa·s
308.15 K, 101 kPa, x1 = 0.02311 | 1.278 mPa·s
308.15 K, 101 kPa, x1 = 0.0244 | 1.34 mPa·s
308.15 K, 101 kPa, x1 = 0.02991 | 1.442 mPa·s
308.15 K, 101 kPa, x1 = 0.03509 | 1.711 mPa·s
308.15 K, 101 kPa, x1 = 0.0411 | 1.94 mPa·s
308.15 K, 101 kPa, x1 = 0.05203 | 2.579 mPa·s
308.15 K, 101 kPa, x1 = 0.0591 | 3.084 mPa·s
308.15 K, 101 kPa, x1 = 0.0625 | 3.31 mPa·s
308.15 K, 101 kPa, x1 = 0.0909 | 6.58 mPa·s and 9 mPa·s
313.15 K, 100 kPa, x1 = 0.0009 | 0.7853 mPa·s
313.15 K, 101 kPa, x1 = 0.002 | 0.6943 mPa·s
313.15 K, 101 kPa, x1 = 0.004 | 0.7341 mPa·s
313.15 K, 101 kPa, x1 = 0.005 | 0.7858 mPa·s
313.15 K, 101 kPa, x1 = 0.011 | 0.81 mPa·s and 0.97 mPa·s
313.15 K, 101 kPa, x1 = 0.02 | 1.022 mPa·s and 0.9825 mPa·s
313.15 K, 101 kPa, x1 = 0.0244 | 1.19 mPa·s
313.15 K, 101 kPa, x1 = 0.0411 | 1.69 mPa·s
313.15 K, 101 kPa, x1 = 0.0625 | 2.96 mPa·s
313.15 K, 101 kPa, x1 = 0.0909 | 4.88 mPa·s and 5.67 mPa·s
313.15 K, 101 kPa, x1 = 0.13 | 13.08 mPa·s and 11.8 mPa·s
313.15 K, 101.3 kPa, x1 = 0.001 | 0.671 mPa·s
318.15 K, 101 kPa, x1 = 0.008982 | 0.756 mPa·s
318.15 K, 101 kPa, x1 = 0.011 | 0.71 mPa·s and 0.85 mPa·s
318.15 K, 101 kPa, x1 = 0.01441 | 0.861 mPa·s
318.15 K, 101 kPa, x1 = 0.0179 | 0.941 mPa·s
318.15 K, 101 kPa, x1 = 0.02 | 0.9234 mPa·s and 0.8774 mPa·s
318.15 K, 101 kPa, x1 = 0.02311 | 1.061 mPa·s
318.15 K, 101 kPa, x1 = 0.0244 | 1.05 mPa·s
318.15 K, 101 kPa, x1 = 0.02991 | 1.197 mPa·s
318.15 K, 101 kPa, x1 = 0.03509 | 1.42 mPa·s
318.15 K, 101 kPa, x1 = 0.0411 | 1.43 mPa·s
318.15 K, 101 kPa, x1 = 0.05203 | 2.141 mPa·s
318.15 K, 101 kPa, x1 = 0.0591 | 2.561 mPa·s
318.15 K, 101 kPa, x1 = 0.0625 | 2.47 mPa·s
318.15 K, 101 kPa, x1 = 0.0909 | 3.91 mPa·s and 4.65 mPa·s
318.15 K, 101 kPa, x1 = 0.13 | 10.56 mPa·s and 8 mPa·s
323.15 K, 101 kPa, x1 = 0.011 | 0.72 mPa·s and 0.78 mPa·s
323.15 K, 101 kPa, x1 = 0.02 | 0.8435 mPa·s and 0.7914 mPa·s
323.15 K, 101 kPa, x1 = 0.0244 | 0.97 mPa·s
323.15 K, 101 kPa, x1 = 0.0411 | 1.29 mPa·s
323.15 K, 101 kPa, x1 = 0.0625 | 2.19 mPa·s
323.15 K, 101 kPa, x1 = 0.0909 | 3.68 mPa·s and 4.56 mPa·s
323.15 K, 101 kPa, x1 = 0.13 | 8.63 mPa·s and 7.5 mPa·s
